Laboratory results from the Kinase Knowledgebase extract (Sharma et al. 2016).

Target: ROCK2 (human) (UniProt O75116)
Assay: Inhibition of ROCK2 Kinase Activity

ROCK2 (human), sequence (O75116 whole entry, looked up): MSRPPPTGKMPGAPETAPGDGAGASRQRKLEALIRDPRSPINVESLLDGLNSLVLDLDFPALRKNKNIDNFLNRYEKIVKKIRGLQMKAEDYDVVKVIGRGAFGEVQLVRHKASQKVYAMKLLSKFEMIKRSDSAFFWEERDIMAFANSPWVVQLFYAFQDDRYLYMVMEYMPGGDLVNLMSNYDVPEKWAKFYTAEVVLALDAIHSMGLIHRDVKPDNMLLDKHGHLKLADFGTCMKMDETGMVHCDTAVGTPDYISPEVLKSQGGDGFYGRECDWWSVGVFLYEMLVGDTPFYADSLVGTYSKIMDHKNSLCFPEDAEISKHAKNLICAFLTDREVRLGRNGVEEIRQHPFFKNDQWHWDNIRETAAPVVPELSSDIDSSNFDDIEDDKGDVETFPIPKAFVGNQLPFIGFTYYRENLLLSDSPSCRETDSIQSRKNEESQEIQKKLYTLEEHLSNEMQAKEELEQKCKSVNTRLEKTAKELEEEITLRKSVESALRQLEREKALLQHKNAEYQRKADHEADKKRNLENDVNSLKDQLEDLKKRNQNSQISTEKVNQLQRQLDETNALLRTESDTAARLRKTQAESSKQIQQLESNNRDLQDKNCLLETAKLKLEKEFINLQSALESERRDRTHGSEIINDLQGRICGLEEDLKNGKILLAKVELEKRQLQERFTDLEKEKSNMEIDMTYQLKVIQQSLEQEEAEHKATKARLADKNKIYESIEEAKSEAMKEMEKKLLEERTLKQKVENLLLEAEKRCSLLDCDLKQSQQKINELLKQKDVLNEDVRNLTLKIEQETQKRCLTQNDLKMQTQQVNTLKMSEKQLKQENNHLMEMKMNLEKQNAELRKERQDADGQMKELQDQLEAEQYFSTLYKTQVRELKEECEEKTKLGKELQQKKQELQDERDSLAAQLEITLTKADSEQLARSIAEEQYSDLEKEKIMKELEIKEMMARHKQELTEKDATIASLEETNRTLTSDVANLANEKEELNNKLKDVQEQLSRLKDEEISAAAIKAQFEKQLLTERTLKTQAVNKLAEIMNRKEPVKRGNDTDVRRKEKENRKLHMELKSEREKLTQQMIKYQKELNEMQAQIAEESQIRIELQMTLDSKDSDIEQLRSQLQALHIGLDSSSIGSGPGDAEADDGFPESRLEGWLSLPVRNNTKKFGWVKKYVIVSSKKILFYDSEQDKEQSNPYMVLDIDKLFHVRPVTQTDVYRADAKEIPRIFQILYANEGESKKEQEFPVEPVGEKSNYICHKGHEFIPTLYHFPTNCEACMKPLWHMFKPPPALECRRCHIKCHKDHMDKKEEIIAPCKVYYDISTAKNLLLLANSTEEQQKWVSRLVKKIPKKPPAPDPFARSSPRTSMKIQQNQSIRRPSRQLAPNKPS

Row | Structure (SMILES) | IC50
1 | NC(CC(=O)NC1CCc2ccccc21)c1ccc(C(=O)Nc2ccncc2)cc1 (stereo not given) | 50 to 500 nM
2 | CC(C)(C(=O)N1CCCC1C(N)c1ccc(C(=O)Nc2ccncc2)cc1)c1ccsc1 (stereo not given) | 500 to 5000 nM
3 | NC(CNC(=O)C1(c2ccc(F)c(F)c2)CC1)c1ccc(C(=O)Nc2ccncc2)cc1 (stereo not given) | 50 to 500 nM
4 | NC(c1ccc(C(=O)Nc2ccncc2)cc1)C1CCCN1C(=O)Cc1ccccc1 (stereo not given) | 50 to 500 nM
5 | CS(=O)(=O)c1cccc(C(=O)NCC(N)c2ccc(C(=O)Nc3ccncc3)cc2)c1 (stereo not given) | 500 to 5000 nM
6 | COc1cc(CC(=O)N2CCCC2C(N)c2ccc(C(=O)Nc3ccncc3)cc2)cc(OC)c1OC (stereo not given) | 500 to 5000 nM
7 | NC(c1ccc(C(=O)Nc2ccncc2)cc1)C1CCCN1C(=O)Cc1cccc(Cl)c1F (stereo not given) | 500 to 5000 nM
8 | NC(CNC(=O)CCC1CCCC1)c1ccc(C(=O)Nc2ccncc2)cc1 (stereo not given) | 50 to 500 nM
9 | NC(c1ccc(C(=O)Nc2ccncc2)cc1)C1CCCN1C(=O)Cc1cccc(Cl)c1 (stereo not given) | 500 to 5000 nM
10 | N[C@H](CC(=O)N[C@@H]1COc2ccccc21)c1ccc(C(=O)Nc2ccncc2)cc1 | < 50 nM
11 | CC(C)(C(=O)NCC(N)c1ccc(C(=O)Nc2ccncc2)cc1)c1ccc(F)c(Cl)c1 (stereo not given) | 50 to 500 nM
12 | NC(CNC(=O)c1ccccc1)c1ccc(C(=O)Nc2ccncc2)cc1 (stereo not given) | 50 to 500 nM
13 | NC(c1ccc(C(=O)Nc2ccncc2)cc1)C1CCCN1C(=O)Cc1c[nH]c2ccccc12 (stereo not given) | 500 to 5000 nM
14 | CCN(Cc1ccc([N+](=O)[O-])cc1)C(=O)CC(N)c1ccc(C(=O)Nc2ccncc2)cc1 (stereo not given) | 50 to 500 nM
15 | Cc1cccc(CC(=O)NCC(N)c2ccc(C(=O)Nc3ccncc3)cc2)c1 (stereo not given) | 50 to 500 nM
16 | NC(CC(=O)NCc1cccs1)c1ccc(C(=O)Nc2ccncc2)cc1 (stereo not given) | 50 to 500 nM
17 | NC(c1ccc(C(=O)Nc2ccncc2)cc1)C1CCCN1C(=O)C1(c2ccc(Cl)cc2)CCC1 (stereo not given) | 500 to 5000 nM
18 | N#Cc1cccc(C(=O)NCC(N)c2ccc(C(=O)Nc3ccncc3)cc2)c1 (stereo not given) | 500 to 5000 nM
19 | CN(C)c1ccc(NC(=O)NCC(N)c2ccc(C(=O)Nc3ccncc3)cc2)cc1 (stereo not given) | 50 to 500 nM
20 | NC(CNC(=O)CCc1cccnc1)c1ccc(C(=O)Nc2ccncc2)cc1 (stereo not given) | 500 to 5000 nM
